{"source": "paper PMC8381248", "about": "(Frontiers in Pharmacology, 2021)", "assay": "Urinary excretion study after intravenous administration", "format": "in vivo, Sprague-Dawley (SD) rats", "conditions": "IV 5 mg/kg; for excretion amount in urine: rat", "experimental": "Eighteen male SD rats were housed in the barrier rodent facilities to acclimatize for a week in animal quarters, which had air conditioning and an automatically controlled photoperiod of 12 h of light daily. Rats had free access to standard chow diet and water until 12 h prior to the beginning of the experiment, at which time only water was accessed freely. The rats were randomly divided into six groups, with three rats in each group.\nA series of calibration standard working solutions (20.0, 10.0, 2.0, 1.0, 0.2, 0.04, and 0.02 μg/ml) was prepared freshly by diluting the stock solution stepwise using ACN-water (70:30, v/v). […] The IS working solutions of 200 ng/ml of tolbutamide or 50 ng/ml of diclofenac sodium were prepared by dilution of the stock standard solution with acetonitrile solution. All the solutions were stored at 4°C and brought to room temperature before use.\nQC samples (3, 40, 800, and 1,600 ng/ml) were prepared separately. For PDG urine samples, the calibration standards were prepared by spiking 5 μL of the appropriate standard working solutions of PDG to 95 μL blank rat urine to prepare the final urine concentration of PDG ranging from 1 ng/ml to 2000 ng/ml. QC samples (3, 40, 800, and 1,600 ng/ml) were prepared separately. […] QC samples (15, 30, 400, and 1,600 ng/ml) were prepared separately.\nUrine samples were collected while the rats remained isolated in metabolic cages at intervals of 0, 2, 4, 8, 24, and 30 h after administration, and the volumes of the urine were measured. The urine samples were also stored at −20°C before tested by LC-MS/MS. For the urine calibration standards, QC urine samples, and the testing urine samples, 100 µL of the urine samples were extracted with 300 µL of methyl tert-butyl ether (MTBE) by vortex mixing for 1 min and centrifuged at 4°C for 10 min at 13,000 rpm. Then, 200 µL of the supernatant was separated and evaporated under a gentle stream of nitrogen. The residue was reconstituted with 120 µL of 30% ACN with 5 µL of IS working solution ([…]), followed by vortex mixing for 10 min.\nLinear gradient elution was performed with certain portions of 10 mM ammonium acetate-water solution containing 0.1% formic acid (mobile phase A) and methanol (mobile phase B). The detailed conditions have been described in Support Materials (Supplementary Table S5).", "data": [{"smiles": "COc1cc(C2OCC3C(c4ccc(OC5OC(CO)C(O)C(O)C5O)c(OC)c4)OCC23)ccc1OC1OC(CO)C(O)C(O)C1O", "note": "(single isomer, unassigned; (+)) [PDG, (+)-1-pinoresinol 4,4′-di-O-β-D-glucopyranoside]", "values": [{"measurement": "cumulative urinary excretion, % of the dose", "setting": "rat urine, for 30 h", "value": "approximately 78.24%"}, {"measurement": "Cumulative Excretion Amount", "setting": "rat urine, within 30 h, n = 3", "value": "807,789.5 ± 65,828.8 ng"}, {"measurement": "excretion amount in urine", "setting": "0–2 h, n = 3", "value": "503,669.8 ± 292,869.4 ng"}, {"measurement": "excretion amount in urine", "setting": "2–4 h, n = 3", "value": "274,878.3 ± 236,625.8 ng"}, {"measurement": "excretion amount in urine", "setting": "4–8 h, n = 3", "value": "989.1 ± 1,053.6 ng"}, {"measurement": "excretion amount in urine", "setting": "8–24 h, n = 3", "value": "2,596.9 ± 1776.4 ng"}, {"measurement": "excretion amount in urine", "setting": "24–30 h, n = 3", "value": "245.1 ± 173.0", "unit": "ng"}, {"measurement": "excretion amount in urine", "setting": "Wash, n = 3", "value": "25,410.3 ± 5,874.3 ng"}]}]}
